# Values joined by “and” are separate entries in the source; they are usually repeats but may differ in a detail not shown here. Equal entries are not always repeated.
# Experiments:
# HCoV 229E = test: Virus yield reduction assay, HCoV-229E on MRC-5 cells (RT-qPCR); type: cell-based; settings: Human coronavirus 229E, MRC5, MOI 0.001, 48 h
# Procedure: (§1) The virus yield reduction assay of HCoV-229E and HCoV-OC43 was performed on MRC-5 cells seeded at 1.5x10^5 cells per well in 24-well plates 24 h prior infection with HCoV-229E (MOI 0.001) or HCoV-OC43 (MOI 0.1) for 1 h. The inoculum was completely removed, and the cells were treated with different concentrations of zapnometinib (50 µM to 0.006 µM) and a solvent control in Iscove’s Modified Dulbecco’s Medium (IMDM) containing 2% FBS, 1% Penicillin/Streptomycin at 34°C, 5% CO2 for 24 h (HCoV-OC43) or 48 h (HCoV-229E). Supernatants were harvested and the viral titer was determined by a real-time one-step multiplex RT-qPCR using specific primers targeting the N and NS2 genes for HCoV-229E and HCoV-OC43 respectively ( Supplementary Table 1 ) EC50 values were calculated based on the measured viral titers normalized to the solvent control (1% DMSO) and using the “log(inhibitor) vs. response - Variable slope (four parameters)” analysis in GraphPad Prism v9.
# SARS-CoV-1 = test: microbe, parasite or virus in culture; type: cell-based, SARS-CoV-1 (SARS-CoV-HKU-39849); settings: Severe acute respiratory syndrome coronavirus, Vero
# HMGB1, GLDH, SELP = test: Candidate safety biomarker analysis in hamster serum (IA-LC-MS/MS); type: in vivo, Syrian hamsters
# Procedure: Serum samples from hamsters collected at pre- infection (0 dpi) and post-infection (4 dpi) and treatment time points were analyzed to evaluate the levels of various candidate safety biomarkers. Serum proteins were enzymatically fragmented through proteolysis, and protein-specific peptides were targeted for quantification of the corresponding protein biomarker levels by immunoaffinity liquid chromatography tandem mass spectrometry (IA-LC-MS/MS) performed as described previously ([48], [49]). For further details, see Supplementary Methods .
# The candidate protein biomarkers were quantified via specific peptides analyzed by immunoaffinity liquid chromatography tandem mass spectrometry (IA-LC-MS/MS) assays. For proteolysis, 10 μL of each serum sample was mixed with 50 μL of digestion buffer (100 mM triethanolamine and 0.5% (w/v) n-octylglucoside (NOG)), and proteolysis reagents were added to achieve a final sample volume of 100 µL. The proteolysis procedure included denaturation at 99 °C for 5 minutes, reduction in 5 mM tris(2-carboxyethyl)-phosphine at 22 °C for 5 minutes, alkylation in 10 mM iodoacetamide at 22 °C for 20 minutes and an overnight enzymatic fragmentation at 37 °C with a trypsin-to-protein ratio of 1:20 (assuming a concentration of 60 mg/mL protein in serum). […]
# The following peptide transitions were monitored in the mass spectrometer : […] […]
# [1] = parameters: method as in PMID 38106555; settings: hospitalized COVID-19 patients; cited from earlier work
# [2] = parameters: method as in NCT04385420; EudraCT 2021-005225-25; settings: two phase 1 studies in healthy volunteers, ref NCT04385420; EudraCT 2021-005225-25; cited from earlier work
# [3] = tested on: cytokine and chemokine gene expression; test: LPS-induced acute lung injury (ALI) mouse model, lung cytokine/chemokine mRNA (RT2 profiler PCR array)
# [4] = tested on: SARS-CoV-2 Omicron B1.1.592; test: microbe, parasite or virus in culture; type: cell-based; settings: Severe acute respiratory syndrome coronavirus 2, Calu-3, 24 h
# [5] = tested on: lymphocytes, T cells and B cells; test: RESPIRE Phase 2 trial, lymphocytes, T and B cells in blood (flow cytometry); type: in vivo, human; settings: 30-day observation period
# Procedure: Patients receiving glucocorticoids as standard of care treatment were excluded from the analyses. Experiments were performed by CheckImmune GmbH according to the companies’ SOPs. In short, presence of lymphocytes, T cells and B cells were determined using Flow cytometry analysis. Fresh whole blood from hospitalized SARS-CoV-2 infected patients was stained with the aforementioned DuraClone antibody panels for 15 min at room-temperature and lysed for 15 min at room temperature following the standard staining protocol. Sample acquisition was carried out using the Navios Flow Cytometer (Beckman Coulter). Data analysis was conducted using Kaluza software before being sent to the LIMS system. This procedure is fit for purpose validated under ISO and GCP guidelines.
# HCoV OC43 = test: Virus yield reduction assay, HCoV-OC43 on MRC-5 cells (RT-qPCR); type: cell-based; settings: Betacoronavirus 1, OC43, MRC5, MOI 0.1, 24 h
# Procedure: as §1
smiles,measurement,setting,value
O=C(O)c1ccc(F)c(F)c1Nc1ccc(I)cc1Cl [zapnometinib],EC50,HCoV 229E,26.6 µM and 10.9 µg/mL
same,EC50,SARS-CoV-1,33.6 µM and 13.8 µg/mL
same,"levels of safety biomarkers HMGB1, GLDH, SELP in serum","HMGB1, GLDH, SELP; 0 dpi vs 4 dpi, 100 mg/kg then 75 mg/kg from +4 or +24 h p.i.",no prominent changes
same,toxicity of the treatment regimen,"HMGB1, GLDH, SELP; 100 mg/kg followed by 75 mg/kg beginning at +4 or +24 h p.i.",not toxic
same,safety and tolerability,[1],safe and well-tolerated
same,toxicity and tolerability in humans,[2],showed no toxicity and was well tolerated
same,"expression of most of the 84 genes (e.g. Il1b, IL-6, ccl2, cxcl1, cxcl10, ccl3)","[3]; 5 mg/kg LPS i.p., 25 mg/kg p.o. 1 h post-stimulation, lung, 6 h post treatment, vs control",downregulated
same,Cxcl1 gene expression in lung tissue,[3]; 25 mg/kg p.o. 1 h after LPS,significantly reduced
same,Il6 gene expression in lung tissue,[3]; 25 mg/kg p.o. 1 h after LPS,significantly reduced
same,Tnf gene expression in lung tissue,[3]; 25 mg/kg p.o. 1 h after LPS,significantly reduced
same,Ifna2 gene (IFN-α) expression,"[3]; 25 mg/kg p.o. 1 h after LPS, lung, p = 0.118",not significantly downregulated
same,EC50,[4],37.9 µM and 15.5 µg/mL
same,"Lymphocytes, Increase compared to Placebo",[5],44.5%
same,"Plasma B cells, Increase compared to Placebo",[5],61.8%
same,"Memory B cells, Increase compared to Placebo",[5]; p = 0.0377,-37.4%
same,"T cells, Increase compared to Placebo",[5]; p = 0.0409,73.7%
same,EC50,HCoV OC43,16.1 µM and 6.6 µg/mL
